Laboratory results published in ChEMBL document CHEMBL1146135, “Benzimidazole inhibitors of hepatitis C virus NS5B polymerase: identification of 2-[(4-diarylmethoxy)phenyl]-benzimidazole” (Bioorg Med Chem Lett, 2006).

Legend:
[1] = target: T1, RNA-directed RNA polymerase (Hepacivirus hominis, UniProt O39930); test: Inhibitory activity against HCV 1b NS5B RNA dependent RNA polymerase; parameters: species or system Hepatitis C virus subtype 1b
Huh-5-2 = test: Cytotoxicity against Huh5-2 cells by MTT assay; format: functional; settings: Homo sapiens
DNA polymerase beta = DNA polymerase beta (Homo sapiens, UniProt P06746); test: Inhibitory activity against DNA polymerase beta
[2] = target: T1, RNA-directed RNA polymerase; test: Inhibitory activity against HCV 1a NS5B RNA dependent RNA polymerase
[3] = target: T2, DNA polymerase alpha catalytic subunit (Homo sapiens, UniProt P09884); test: Inhibitory activity against DNA polymerase alpha
T2 sequence (P09884 whole entry): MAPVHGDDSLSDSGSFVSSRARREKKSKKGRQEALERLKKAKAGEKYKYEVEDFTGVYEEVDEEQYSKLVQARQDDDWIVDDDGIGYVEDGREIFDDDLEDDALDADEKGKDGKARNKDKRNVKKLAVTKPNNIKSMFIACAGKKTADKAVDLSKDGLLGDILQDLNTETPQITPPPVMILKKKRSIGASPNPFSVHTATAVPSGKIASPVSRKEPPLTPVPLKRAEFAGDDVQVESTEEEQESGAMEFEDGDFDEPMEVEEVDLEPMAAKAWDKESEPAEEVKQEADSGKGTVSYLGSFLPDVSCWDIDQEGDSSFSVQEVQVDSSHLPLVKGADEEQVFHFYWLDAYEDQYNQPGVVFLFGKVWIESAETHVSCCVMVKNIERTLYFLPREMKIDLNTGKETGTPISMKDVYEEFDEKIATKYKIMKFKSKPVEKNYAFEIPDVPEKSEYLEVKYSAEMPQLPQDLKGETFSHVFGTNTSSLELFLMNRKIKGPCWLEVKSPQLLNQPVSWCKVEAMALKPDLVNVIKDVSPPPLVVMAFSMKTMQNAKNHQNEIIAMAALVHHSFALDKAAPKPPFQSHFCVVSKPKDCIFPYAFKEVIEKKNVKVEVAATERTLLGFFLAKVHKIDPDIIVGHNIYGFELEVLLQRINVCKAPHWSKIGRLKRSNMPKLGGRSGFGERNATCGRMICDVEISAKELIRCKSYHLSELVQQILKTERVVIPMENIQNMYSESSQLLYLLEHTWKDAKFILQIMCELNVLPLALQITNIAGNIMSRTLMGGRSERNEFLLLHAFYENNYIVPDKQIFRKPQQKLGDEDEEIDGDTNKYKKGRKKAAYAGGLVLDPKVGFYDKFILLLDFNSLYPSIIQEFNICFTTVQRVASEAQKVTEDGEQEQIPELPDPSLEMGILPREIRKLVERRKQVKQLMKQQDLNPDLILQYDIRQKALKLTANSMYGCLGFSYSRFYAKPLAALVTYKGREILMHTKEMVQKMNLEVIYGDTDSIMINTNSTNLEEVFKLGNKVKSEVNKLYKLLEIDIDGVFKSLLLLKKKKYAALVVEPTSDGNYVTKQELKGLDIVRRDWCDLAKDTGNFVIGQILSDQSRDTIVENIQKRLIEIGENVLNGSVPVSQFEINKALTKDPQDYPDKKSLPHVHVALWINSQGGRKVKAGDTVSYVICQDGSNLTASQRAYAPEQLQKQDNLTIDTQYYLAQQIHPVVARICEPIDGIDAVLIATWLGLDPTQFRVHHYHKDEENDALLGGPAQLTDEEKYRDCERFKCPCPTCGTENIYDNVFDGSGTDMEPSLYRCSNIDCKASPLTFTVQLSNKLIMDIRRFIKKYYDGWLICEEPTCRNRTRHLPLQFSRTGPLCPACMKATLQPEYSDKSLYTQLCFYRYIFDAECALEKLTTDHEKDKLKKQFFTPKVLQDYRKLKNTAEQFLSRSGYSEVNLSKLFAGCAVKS

[4] = target: RNA-directed RNA polymerase (Hepacivirus hominis) (UniProt O39930); test: Inhibitory activity against HCV 1b NS5B RNA dependent RNA polymerase at 10 uM; settings: Hepatitis C virus subtype 1b
RNA-directed RNA polymerase (Hepacivirus hominis), sequence (O39930 1-591): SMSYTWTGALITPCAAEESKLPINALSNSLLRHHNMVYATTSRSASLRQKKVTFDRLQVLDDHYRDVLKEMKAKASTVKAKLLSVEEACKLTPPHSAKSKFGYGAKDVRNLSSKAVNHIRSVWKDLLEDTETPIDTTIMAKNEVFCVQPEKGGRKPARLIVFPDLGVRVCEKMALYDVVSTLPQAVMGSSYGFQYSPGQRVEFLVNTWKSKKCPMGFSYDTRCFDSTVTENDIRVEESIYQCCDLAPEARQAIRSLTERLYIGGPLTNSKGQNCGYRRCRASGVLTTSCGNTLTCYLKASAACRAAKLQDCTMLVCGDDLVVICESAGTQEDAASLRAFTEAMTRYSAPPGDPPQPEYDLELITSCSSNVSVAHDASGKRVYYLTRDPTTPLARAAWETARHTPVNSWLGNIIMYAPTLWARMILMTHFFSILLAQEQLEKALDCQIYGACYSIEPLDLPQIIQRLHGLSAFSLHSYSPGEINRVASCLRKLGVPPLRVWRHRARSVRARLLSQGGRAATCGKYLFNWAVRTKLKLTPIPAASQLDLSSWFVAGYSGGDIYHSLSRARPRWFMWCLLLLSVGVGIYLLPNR

T1 sequence (O39930 whole entry): as the sequence (O39930 1-591) above

SMILES	IC50 [1] [nM]	CC50 (Huh-5-2) [nM]	IC50 (DNA polymerase beta) [nM]	IC50 [2] [nM]	IC50 [3] [nM]	inhibition [4] [%]
O=C(O)c1ccc2c(c1)nc(-c1ccc(OC(c3ccccc3)c3ccccc3)cc1F)n2C1CCCCC1	96	27300	> 10000	800	> 10000	
O=C(O)c1ccc2c(c1)nc(-c1ccc(OCCOc3ccccc3)cc1)n2C1CCCCC1	1200					
O=C(O)c1ccc2c(c1)nc(-c1ccc(OCc3ccc(C(F)(F)F)cc3)cc1)n2C1CCCC1	1800					
O=C(O)c1ccc2c(c1)nc(-c1ccc(OCCCCCc3ccccc3)cc1)n2C1CCCCC1	1000					
O=C(O)c1ccc2c(c1)nc(-c1ccc(OCCc3ccccc3-c3ccccc3)cc1)n2C1CCCCC1	340					
O=C(O)c1ccc2c(c1)nc(-c1ccc(OC(c3ccc(F)cc3)c3ccc(F)cc3)cc1)n2C1CCCCC1	800	27700	> 10000	1700	> 10000	
O=C(O)c1ccc2c(c1)nc(-c1ccc(OC(c3ccc(F)cc3)c3ccc(F)cc3)cc1F)n2C1CCCCC1	300	27200	> 10000	840	> 10000	
O=C(O)c1ccc2c(c1)nc(-c1ccc(OCCCc3ccccc3)cc1)n2C1CCCCC1	800					
O=C(O)c1ccc2c(c1)nc(-c1ccc(OC(c3ccccc3)c3ccccc3)cc1)n2C1CCCCC1	590	31900	> 10000	1300	> 10000	
Cc1ccc(COc2ccc(-c3nc4cc(C(=O)O)ccc4n3C3CCCC3)cc2)cc1	1600					
O=C(O)c1ccc2c(c1)nc(-c1ccc(OCc3ccncc3)cc1)n2C1CCCC1	4200					
O=C(O)c1ccc2c(c1)nc(-c1ccc(OCc3ccc(Cl)c(Cl)c3)cc1)n2C1CCCC1	1300					
O=C(O)c1ccc2c(c1)nc(-c1ccc(Oc3ccccc3-c3ccccc3)cc1)n2C1CCCCC1	580					
O=C(O)c1ccc2c(c1)nc(-c1ccc(OCc3cccc(-c4ccccc4)c3)cc1)n2C1CCCCC1	390					
O=C(O)c1ccc2c(c1)nc(-c1ccc(OCC(c3ccccc3)c3ccccc3)cc1)n2C1CCCCC1	980					
COc1ccc(COc2ccc(-c3nc4cc(C(=O)O)ccc4n3C3CCCC3)cc2)cc1	2100					
O=C(O)c1ccc2c(c1)nc(-c1ccc(OC(c3cccnc3)c3cccnc3)cc1F)n2C1CCCCC1	1100	> 50000	> 10000	2200	> 10000	

SMILES	IC50 [1] [nM]	CC50 (Huh-5-2) [nM]	IC50 (DNA polymerase beta) [nM]	IC50 [2] [nM]	IC50 [3] [nM]	inhibition [4] [%]
O=C(O)c1ccc2c(c1)nc(-c1ccc(OC(c3ccccc3)c3cccnc3)cc1F)n2C1CCCCC1 (stereo not drawn)	270	> 50000	> 10000	800	> 10000	
O=C(O)c1ccc2c(c1)nc(-c1ccc(OCc3ccccc3Cl)cc1)n2C1CCCC1	2300					
O=C(O)c1ccc2c(c1)nc(-c1ccc(OCc3ccccc3)cc1)n2C1CCCC1	3200					
CN(C)C(=O)c1ccc(C(Oc2ccc(-c3nc4cc(C(=O)O)ccc4n3C3CCCCC3)c(F)c2)c2ccc(C(=O)N(C)C)cc2)cc1	640	> 50000	> 10000	950	> 10000	
O=C(O)c1ccc2c(c1)nc(-c1ccc(OCc3ccccc3)cc1)n2C1CCCCC1	1400					
O=C(O)c1ccc2c(c1)nc(-c1ccc(OC(c3cccc(F)c3)c3cccc(F)c3)cc1)n2C1CCCCC1	760	24400	> 10000	1900	> 10000	
O=C(O)c1ccc(COc2ccc(-c3nc4cc(C(=O)O)ccc4n3C3CCCC3)cc2)cc1	6700					
O=C(O)c1ccc2c(c1)nc(-c1ccc(OCc3ccc(Cl)cc3)cc1)n2C1CCCC1	1200					
O=C(O)c1ccc2c(c1)nc(-c1ccc(OCc3ccccc3)cc1)n2C1CCCCCC1	1800					
O=C(O)c1ccc2c(c1)nc(-c1ccc(OC(c3ccc(Cl)cc3)c3ccc(Cl)cc3)cc1)n2C1CCCCC1	930	23700	> 10000	2400	> 10000	
Cc1ccc(C(Oc2ccc(-c3nc4cc(C(=O)O)ccc4n3C3CCCCC3)cc2)c2ccc(C)cc2)cc1	1200	23500	> 10000	3100	> 10000	
O=C(O)c1ccc2c(c1)nc(-c1ccc(OCc3cc(Cl)cc(Cl)c3)cc1)n2C1CCCC1	1700					
O=C(O)c1ccc2c(c1)nc(-c1ccc(OCc3cccc(Cl)c3)cc1)n2C1CCCC1	1600					
NC(=O)c1ccc2c(c1)nc(-c1ccc(OCc3ccccc3)cc1)n2C1CCCC1						47
CC(C)(C)c1ccc(COc2ccc(-c3nc4cc(C(=O)O)ccc4n3C3CCCC3)cc2)cc1	1500					
O=C(O)c1ccc2c(c1)nc(-c1ccc(OCc3ccccc3-c3ccccc3)cc1)n2C1CCCCC1	300					
